“And” between values parts separate entries of the source, which are not always exact repeats. Equal entries are not always repeated. Toxic doses and inconclusive results are not listed. Non-standard residues stand in square brackets, D forms with d. Residues, ends and D or L forms follow the SMILES beside them. ξ: configuration not given here. *: point of attachment. Nphe = O=C(O)CNCc1ccccc1; ξL = CC(C)CC(N)C(=O)O; Ms = CS(=O)(=O)*
Test system: BDF1 mice, P388 leukemia ip, median survival T/C
Experiment: NCI In Vivo Anticancer Drug Screen. Data for tumor model P388 Leukemia (intraperitoneal) in B6D2F1 (BDF1) mice
Settings: endpoint: median survival time, higher = longer survival
How it was run: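 Survival ratio, drug arm over vehicle arm, in mice with a transplanted tumour.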

[1] = dose: 12.5 mg/kg/injection, schedule: Q01DX009 (ip), vehicle: saline
[2] = dose: 25.0 mg/kg/injection, schedule: Q01DX009 (ip), vehicle: saline
[3] = dose: 50.0 mg/kg/injection, schedule: Q01DX009 (ip), vehicle: saline
[4] = dose: 100.0 mg/kg/injection, schedule: Q01DX009 (ip), vehicle: saline
[5] = dose: 100.0 mg/kg/injection, schedule: Q01DX009 (ip), vehicle: water
[6] = dose: 100.0 mg/kg/injection, schedule: Q04DX003 (ip), vehicle: saline with Tween-80
[7] = dose: 100.0 mg/kg/injection, schedule: Q04DX003 (ip), vehicle: water
[8] = dose: 200.0 mg/kg/injection, schedule: Q01DX009 (ip), vehicle: water
[9] = dose: 200.0 mg/kg/injection, schedule: Q04DX003 (ip), vehicle: water
[10] = dose: 400.0 mg/kg/injection, schedule: Q01DX009 (ip), vehicle: water
[11] = dose: 400.0 mg/kg/injection, schedule: Q04DX003 (ip), vehicle: water
[12] = dose: 50.0 mg/kg/injection, schedule: Q01DX009 (ip), vehicle: water
[13] = dose: 12.5 mg/kg/injection, schedule: Q01DX009 (ip), vehicle: saline with Tween-80
[14] = dose: 25.0 mg/kg/injection, schedule: Q01DX009 (ip), vehicle: saline with Tween-80
[15] = dose: 50.0 mg/kg/injection, schedule: Q01DX009 (ip), vehicle: saline with Tween-80
[16] = dose: 100.0 mg/kg/injection, schedule: Q01DX009 (ip), vehicle: saline with Tween-80
[17] = dose: 200.0 mg/kg/injection, schedule: Q01DX009 (ip), vehicle: Klucel (hydroxypropylcellulose) (HPC)

`CC1=CC(=O)[C@@H](O)[C@]2(C)[C@H]3[C@@]4(O)OC[C@]35[C@H]([C@@H](C)[C@H]4O)[C@@H](OC(=O)c3ccccc3)C(=O)O[C@@H]5C[C@@H]12` was tested, and the T/C (dose: 0.03 mg/kg/injection, schedule: Q01DX009 (ip), vehicle: saline with Tween-80) was 121 % of control, the T/C (dose: 0.06 mg/kg/injection, schedule: Q01DX009 (ip), vehicle: saline with Tween-80) was 118 % of control and the T/C (dose: 0.12 mg/kg/injection, schedule: Q01DX009 (ip), vehicle: saline with Tween-80) was 122 % of control.

For `CC(C)CC(NC(=O)CN(Cc1ccccc1)S(C)(=O)=O)C(=O)O` (stereo not drawn) (Ms-[Nphe]-[ξL]-OH), the T/C (dose: 6.25 mg/kg/injection, schedule: Q04DX003 (ip), vehicle: other) was 110 % of control, the T/C (dose: 12.5 mg/kg/injection, schedule: Q04DX003 (ip), vehicle: other) was 97 % of control and the T/C (dose: 25.0 mg/kg/injection, schedule: Q04DX003 (ip), vehicle: other) was 113 % of control. For the same molecule, the T/C (dose: 50.0 mg/kg/injection, schedule: Q01DX009 (ip), vehicle: other) was 151 % of control, the T/C (dose: 50.0 mg/kg/injection, schedule: Q04DX003 (ip), vehicle: other) was 95 % of control and 98 % of control and the T/C (dose: 100.0 mg/kg/injection, schedule: Q04DX003 (ip), vehicle: other) was 100 % of control and 103 % of control. For the same molecule, the T/C (dose: 200.0 mg/kg/injection, schedule: Q01DX009 (ip), vehicle: other) was 89 % of control, the T/C (dose: 200.0 mg/kg/injection, schedule: Q04DX003 (ip), vehicle: other) was 98 % of control and 106 % of control and the T/C (dose: 400.0 mg/kg/injection, schedule: Q04DX003 (ip), vehicle: other) was 106 % of control.

With `OC1OC(COC(c2ccccc2)(c2ccccc2)c2ccccc2)C(O)C(O)C1O` (stereo not drawn) the T/C (dose: 10.0 mg/kg/injection, schedule: Q01DX009 (ip), vehicle: saline) was 123 % of control, the T/C [1] was 88 % of control and the T/C (dose: 20.0 mg/kg/injection, schedule: Q01DX009 (ip), vehicle: saline) was 108 % of control. The T/C [2] was 104 % of control and 115 % of control, the T/C (dose: 40.0 mg/kg/injection, schedule: Q01DX009 (ip), vehicle: saline) was 114 % of control and the T/C [3] was 101 % of control and 123 % of control. For the same molecule, the T/C (dose: 80.0 mg/kg/injection, schedule: Q01DX009 (ip), vehicle: saline) was 107 % of control, the T/C [4] was 90 % of control and 104 % of control and 105 % of control and the T/C [5] was 100 % of control. The T/C [6] was 110 % of control, the T/C (dose: 100.0 mg/kg/injection, schedule: Q04DX003 (ip), vehicle: saline) was 90 % of control and the T/C [7] was 105 % of control. The T/C [8] was 105 % of control, the T/C (dose: 200.0 mg/kg/injection, schedule: Q04DX003 (ip), vehicle: saline with Tween-80) was 105 % of control and the T/C (dose: 200.0 mg/kg/injection, schedule: Q04DX003 (ip), vehicle: saline) was 95 % of control. For the same molecule, the T/C [9] was 110 % of control, the T/C [10] was 105 % of control and the T/C (dose: 400.0 mg/kg/injection, schedule: Q04DX003 (ip), vehicle: saline with Tween-80) was 110 % of control. For the same molecule, the T/C [11] was 110 % of control.

In the case of `Cn1cnccc1=O`, the T/C [12] is reported as 122 % of control, the T/C [5] is reported as 121 % of control and the T/C [7] is reported as 118 % of control. For the same molecule, the T/C [8] was 102 % of control, the T/C [9] was 106 % of control and the T/C [10] was 103 % of control. The T/C [11] was 115 % of control.

`CCOC(=O)C1(C)C=C(Nc2ccc(OC)cc2)C(=O)N1c1ccc(OC)cc1` (stereo not drawn) was tested, and the T/C (dose: 6.25 mg/kg/injection, schedule: Q01DX009 (ip), vehicle: saline with Tween-80) was 104 % of control, the T/C [13] was 100 % of control and the T/C [14] was 100 % of control. The T/C [15] was 95 % of control.

With `Cn1c(Cc2ccccc2)c([N+](=O)[O-])c(=O)n(C)c1=O` the T/C [15] was 110 % of control and the T/C [16] was 113 % of control.

For `O=C1NN(c2ccccc2)C(=O)/C1=C\c1ccccc1O`, the T/C (dose: 350.0 mg/kg/injection, schedule: Q01DX009 (ip), vehicle: saline with Tween-80) was 97 % of control.

`OCC#CCO` was tested, and the T/C (dose: 12.0 mg/kg/injection, schedule: Q01DX001 (ip), vehicle: saline) was 95 % of control, the T/C (dose: 25.0 mg/kg/injection, schedule: Q01DX001 (ip), vehicle: saline) was 113 % of control and the T/C (dose: 50.0 mg/kg/injection, schedule: Q01DX001 (ip), vehicle: saline) was 109 % of control.

For `OC1CC2C3C4C1C1C2C3C41` (stereo not drawn), the T/C (dose: 100.0 mg/kg/injection, schedule: Q01DX001 (ip), vehicle: saline) was 95 % of control, the T/C (dose: 100.0 mg/kg/injection, schedule: Q04DX003 (ip), vehicle: Klucel (hydroxypropylcellulose) (HPC)) was 115 % of control and the T/C (dose: 200.0 mg/kg/injection, schedule: Q01DX001 (ip), vehicle: saline) was 86 % of control. The T/C (dose: 200.0 mg/kg/injection, schedule: Q04DX003 (ip), vehicle: Klucel (hydroxypropylcellulose) (HPC)) was 115 % of control and the T/C (dose: 400.0 mg/kg/injection, schedule: Q04DX003 (ip), vehicle: Klucel (hydroxypropylcellulose) (HPC)) was 90 % of control.

With `CCC[P+](c1ccccc1)(c1ccccc1)c1ccccc1` the T/C (dose: 2.0 mg/kg/injection, schedule: Q01DX009 (ip), vehicle: saline) was 111 % of control, the T/C (dose: 4.0 mg/kg/injection, schedule: Q01DX009 (ip), vehicle: saline) was 115 % of control and the T/C (dose: 8.0 mg/kg/injection, schedule: Q01DX009 (ip), vehicle: saline) was 123 % of control.

In the case of `CCCCCCCCCCNC1CC(OC2CC(O)(C(C)=O)Cc3c(O)c4c(c(O)c32)C(=O)c2c(OC)cccc2C4=O)OC(C)C1O` (stereo not drawn), the T/C (dose: 3.13 mg/kg/injection, schedule: Q01DX009 (ip), vehicle: water) is reported as 108 % of control and the T/C (dose: 6.25 mg/kg/injection, schedule: Q01DX009 (ip), vehicle: water) is reported as 103 % of control.

In the case of `ClC1(c2ccccc2)c2ccc(Br)cc2-c2cc(Br)ccc21`, the T/C (dose: 66.0 mg/kg/injection, schedule: Q01DX009 (ip), vehicle: saline with Tween-80) is reported as 100 % of control, the T/C [16] is reported as 121 % of control and the T/C [17] is reported as 88 % of control.

With `COC(=O)c1ccccc1NC(=O)CCl` the T/C (dose: 50.0 mg/kg/injection, schedule: Q04DX003 (ip), vehicle: saline with Tween-80) was 100 % of control and the T/C [6] was 87 % of control.

`NC(N)=Nc1ccc(S(=O)(=O)O)cc1` was tested, and the T/C [1] was 108 % of control, the T/C [2] was 108 % of control and the T/C [3] was 91 % of control. The T/C [4] was 106 % of control.

For `FC(F)(F)c1cc(NC2=NCCN=C(Nc3cc(C(F)(F)F)cc(C(F)(F)F)c3)SS2)cc(C(F)(F)F)c1`, the T/C (dose: 50.0 mg/kg/injection, schedule: Q01DX009 (ip), vehicle: Klucel (hydroxypropylcellulose) (HPC)) was 102 % of control, the T/C (dose: 100.0 mg/kg/injection, schedule: Q01DX009 (ip), vehicle: Klucel (hydroxypropylcellulose) (HPC)) was 96 % of control and the T/C [17] was 110 % of control.

With `O=[N+]([O-])c1ccc(Oc2ccc(C3N(c4ccccc4)CCN3c3ccccc3)cc2)c([N+](=O)[O-])c1` the T/C (dose: 12.5 mg/kg/injection, schedule: Q01DX009 (ip), vehicle: water) was 99 % of control, the T/C (dose: 25.0 mg/kg/injection, schedule: Q01DX009 (ip), vehicle: water) was 89 % of control and the T/C [12] was 99 % of control. The T/C [5] was 90 % of control and the T/C [8] was 91 % of control.

With `CC1CCC2C(C)C(=O)OC2C2(C)C(=O)C=CC12` (stereo not drawn) the T/C (dose: 6.4 mg/kg/injection, schedule: Q01DX009 (ip), vehicle: alcohol) was 106 % of control, the T/C (dose: 9.6 mg/kg/injection, schedule: Q01DX009 (ip), vehicle: alcohol) was 100 % of control and the T/C (dose: 14.0 mg/kg/injection, schedule: Q01DX009 (ip), vehicle: alcohol) was 122 % of control. The T/C (dose: 22.0 mg/kg/injection, schedule: Q01DX009 (ip), vehicle: alcohol) was 108 % of control.

In the case of `CN=S(=O)(OC/C=C/COS(=O)(=NC)c1ccc(C)cc1)c1ccc(C)cc1` (stereo not drawn), the T/C [13] is reported as 95 % of control, the T/C [14] is reported as 110 % of control and the T/C (dose: 50.0 mg/kg/injection, schedule: Q01DX009 (ip), vehicle: saline + alcohol) is reported as 121 % of control. The T/C [16] was 100 % of control.

Reference: PubChem BioAssay AID328 (DTP/NCI, 2004)
